Laboratory results published in US20090012179A1, “Use of Tyrphostins to Stimulate Neurite Outgrowth” (priority 2004, published 2009).
Entries after “also recorded” stand apart in the source; their conditions may differ. Read-outs that look alike come from different tables or passages of the source.

Assays:
[1] = tested on: primary rat SNc neuron cultures; experiment: [3H]Dopamine uptake in primary SNc neuron cultures; format: cell-based; details: A9 for six days
Description: Primary cultures of rat embryonic SNc neuron cultures were grown on treated 12-well plates (for dopamine uptake) or coverslips (for neuroprotection) for 10 days as described in the Examples section. In FIG. 6A, the neurons were treated with different concentrations of A9 for 6 days before dopamine uptake was measured. Data=mean±SD (n=3). In FIG. 6B, MPP^+ (25 μM) was added into medium on day 11, while A9 was added either on day 10 (pretreatment) or day 12 (after MPP^+). Half of the medium was changed with fresh A9 on day 14. The neurons were fixed on day 16 and stained for tyrosine hydroxylase (TH, green) and total-ERK (red). Images were captured with fluorescence microscopy at magnification×100.
Dopamine uptake: NS20Y cells or neuron cultures are plated on poly-L-lysine (for NS20Y) or poly-D-lysine (for neuron culture)-coated 24-well plates and grown to confluence. The medium is decanted and cells are prepared for [^3H]dopamine uptake. Cells are incubated in the presence or absence of mazindol (10 μM to determine nonspecific uptake) for at least 10 minutes prior to addition of [^3H]dopamine. The uptake assay (final volume 0.5 ml) is initiated by the addition of 50 nM [^3H]dopamine and 2 μM dopamine in Krebs-HEPES buffer. […] Radioactivity remaining in each well is determined using liquid scintillation spectrometry. […]

ERK [2] = experiment: ERK activation in NS20Y neuroblastoma cells, immunoblotting for dually phosphorylated ERK; format: cell-based, mouse; details: dually phosphorylated ERK by immunoblotting
[3] = Golomb et al. 1996; cited from earlier work
Solubility of A9 stock = format: physicochemical
Description: (§1) 5. Physical properties: A9 stock can be dissolved in ethanol, methylene chloride, or DMSO as high as 25 mg/ml. The stock of A9 can then be diluted in water or saline. The final concentration in saline can reach 10 mg/ml according to our experience. A9 is very stable in organic solvents and keeps its activity (indicated by its ability to stimulate ERK activation in NS20Y cells, data not shown) for 6 months at room temperature. […] In saline, its half-life was reported to be 4 days at 37° C. (Golumb, Atherosclerosis 125:171-182, 1996). […] A similar evaluation of the chemical nature of any tyrphostin can be used to determine if it is of use to induce neurite outgrowth and regeneration in a subject.

[4] = Stability of A9 in solution; format: physicochemical
Description: as §1

ERK [5] = experiment: ERK phosphorylation in primary rat SNc dopaminergic neurons, p-ERK staining; format: cell-based; details: primary rat SNc neuron culture, A9 1 μM, 1 hour
Description: Primary cultures of rat embryonic SNc neurons were stimulated with vehicle (NT) or A9 (1 μM) for 1 hour and then stained for tyrosine hydroxylase (TH) and phospho-ERK (p-ERK). Images were digitally captured with an Olympus CX640 fluorescence microscope.
Primary Neuronal Cultures: The substantia nigra or striatal region is dissected from 4 day-old Sprague-Dawley rats and incubated in minimum essential medium (MEM) containing 20 U/ml papain for 2 hours at 37° C. The tissue is then triturated using fire-polished Pasteur pipettes in MEM supplemented with 10% fetal bovine serum, 0.45% glucose, […] insulin, 0.5 mM glutamine, 100 U/ml penicillin, and 100 μg/ml streptomycin. Cells are plated on 18 mm diameter poly-D-lysine-coated glass coverslips (Fisher 12-545-84 18cir-1D) at a density of 75,000 cells per coverslip for immunofluorescence imaging or in 12-well or 6-well tissue culture plates for immunoblotting studies. […]
Cell preparation for microscopy: Neuroblastoma cells and rat striatal neurons are grown on glass coverslips and treated with poly-D-Lysine. […] The samples are examined by an Olympus CX640 fluorescence microscope, or scanned with a Leica TCS SP confocal laser scanning microscope. Images are digitally captured and recorded with computer. […]

CC(C)(C)c1cc(C=C(C#N)C#N)cc(C(C)(C)C)c1O [A9, tyrphostin A9]
Concentration at which maximum dopamine uptake response is reached [1]: 100 nM
Dopamine uptake [1]: increased dopamine uptake in primary rat SNc neuron cultures in a concentration-dependent manner; also recorded: stimulated dopamine uptake increase
ERK activation (ERK [2]): robust activation of ERK; also recorded: stimulated ERK activation in NS20Y cells in a time (FIG. 2A) and dose (FIG. 2B)-dependent manner; also recorded: induced robust and sustained ERK activation
ERK activation (ERK [2]; listed as tyrphostin A9): stimulated robust and sustained ERK activation in a time and dose-dependent manner
Side effects [3]: has not been shown to produce obvious side effects
solubility (Solubility of A9 stock; aqueous with cosolvent or surfactant or cyclodextrin, kinetic from dmso stock, stock diluted in saline, read-out: Final concentration in saline): ≥ 10 mg/mL
solubility (Solubility of A9 stock; organic solvent or mixture, in ethanol, methylene chloride, or DMSO, read-out: Solubility of stock): ≤ 25 mg/mL
Effect of repeated freeze/thaw cycles on activity ([4]; in organic solvents): do not affect its activity
Time for which activity is kept in organic solvents ([4]; room temperature, activity by ERK activation in NS20Y cells): 6 months
ERK phosphorylation/activation in dopaminergic neurons (ERK [5]): induced robust ERK activation
ERK phosphorylation/activation in dopaminergic neurons (ERK [5]; listed as tyrphostin A9): induced ERK phosphorylation
